This is an account of results in patent publication US9169315B2, “Heparin cofactor II fragments with anti-inflammatory and anti-coagulant activity” (XIMMUNE AB, priority 2009, dated 2015).

The subject of assay [1] is E. coli 0111:B4 LPS. Description: LPS model in vivo (E. coli LPS-induced shock). More on the design: species or system C57BL/6 mice. The following applies: for Platelet counts / IFN-γ in blood / IL-6 in blood / MCP-1 in blood / TNF-α in blood / IL-10 in blood: 0.5 mg peptide; for Platelet counts: 8 and 20 h after LPS; for IFN-γ in blood / IL-6 in blood / MCP-1 in blood / TNF-α in blood: 8 and 20 h after LPS injection; for IL-10 in blood: 8 or 20 h after LPS injection; for Survival: 18 mg/kg E. coli LPS i.p., peptide i.p., followed 7 days; for Weight: followed for 7 days. Here is the method:
Septic shock in C57BL6 mice was induced by intraperitoneal injection of 18 mg/kg E. coli LPS. Sixty minutes later KYE28 and KYE21 (0.2 and 0.5 mg; in PBS) or buffer only was administered. […] (C) Peptide treatment affects the number of platelets in the LPS-induced shock model. (D) In separate experiments mice were injected with LPS followed by administration of 0.5 mg of KYE28 or KYE21, or buffer. Animals were sacrificed at 8 h, 20 h, or after 7 days and the number of platelets in blood counted using the VetScanSystem. […] Cytokines were measured in blood from animals sacrificed at 8 or 20 h after LPS injection. […] C57BL6 were i.p. injected with […] LPS followed by 0.5 mg of KYE28 After 20 h mice were sacrificed and cytokine levels in blood were determined. (KYE28; n=10). All data are representative of two independent experiment.
RAW 264.7 macrophages were stimulated with 10 ng/ml E. coli or P. aeruginosa LPS in combination with indicated concentrations NLF20. […] Clotting times were determined without (control) or with 20 μM of the peptide. Activated partial thromboplastin time (aPTT) was measured by incubating the peptides at the indicated concentrations in citrated human plasma for 1 minute followed by the addition of 100 μl aPTT reagent (aPTT Automate, Diagnostica Stago) for 60 seconds at 37° C. Clotting was initiated by the addition of CaCl2 solution. Results illustrating the prothombin time assay (PT) and thrombin clotting time (TCT) are also presented. (C) Septic shock in C57BL6 mice was induced by intraperitoneal injection of 18 mg/kg E. coli LPS. NLF20 (0.2 or 0.5 mg in 10 mM Tris, pH 7.4) or buffer only was administered. […] (E) Weight was followed for 7 days. […] In separate experiments mice were injected with LPS followed by administration of 0.5 mg of NLF20, or buffer. Animals were sacrificed at 8 h, 20 h, and survivors after 7 days and the number of platelets in blood counted using the VetScanSystem. (F) Administration of NLF20 (0.5 mg) selectively modulates the cytokine response compared to control mice. Cytokines were measured in blood from animals sacrificed at 8 or 20 h after LPS injection. (G) NLF abrogates inflammation in lungs. Lungs were analyzed by light microscopy after staining with hematoxylin-eosin, or analyzed by scanning electron microscopy 20 h after LPS injection i.p., followed by treatment with NLF20 (0.5 mg) or buffer.
Male C57BL/6 mice (8-10 weeks, 22+/−5 g), were injected intraperitoneally with 18 mg E. coli 0111:B4 LPS (Sigma) per kg of body weight. Thirty minutes after LPS injection, 0.5 mg KYE28, KYE21 or buffer alone was injected intraperitoneally into the mice. Survival and status was followed during seven days. For blood collection and histochemistry, mice were sacrificed 20 h after LPS challenge, and lungs were removed and fixed. These experiments were approved by the Laboratory Animal Ethics Committee of Malmö/Lund.
Male C57BL/6 mice (8-10 weeks, 22+/−5 g), were injected intraperitoneally with 18 mg E. coli 0111:B4 LPS (Sigma) per kg of body weight. Thirty minutes after LPS injection, 0.5 mg NLF20 or buffer alone was injected intraperitoneally into the mice. Survival and status was followed during seven days. For blood collection and histochemistry, mice were sacrificed 20 h after LPS challenge, and lungs were removed and fixed. These experiments were approved by the Laboratory Animal Ethics Committee of Malmö/Lund.

Assay [2] concerns Escherichia coli, Pseudomonas aeruginosa, Bacillus subtilis, Staphylococcus aureus, Candida albicans, Candida parapsilosis. Description: Radial diffusion assay (RDA). The assay is classed as cell-based. The following applies: peptide at 100 μM; compared with LL-37. Here is the method: Essentially as described earlier, bacteria were grown to mid-logarithmic phase in 10 ml of full-strength (3% w/v) trypticase soy broth (TSB) (Becton-Dickinson). The microorganisms were then washed once with 10 mM Tris, pH 7.4. Subsequently, 4×10^6 cfu were added to 15 ml of the underlay agarose gel, consisting of 0.03% (w/v) TSB, 1% (w/v) low electroendosmosis type (EEO) agarose (Sigma-Aldrich) and 0.02% (v/v) Tween 20 (Sigma-Aldrich). The underlay was poured into a Ø 144 mm petri dish. After agarose solidification, 4 mm-diameter wells were punched and 6 μl peptide solution of required concentration added to each well. Plates were incubated at 37° C. for 3 h to allow peptide diffusion. The underlay gel was then covered with 15 ml of molten overlay (6% TSB and 1% Low-EEO agarose in distilled H2O). Antimicrobial activity of a peptide was visualized as a zone of clearing around each well after 18-24 h of incubation at 37° C.
Essentially as described earlier (Lehrer, Rosenman et al. 1991; Andersson, Rydengård et al. 2004), bacteria were grown to mid-logarithmic phase in 10 ml of full-strength (3% w/v) trypticase soy broth. (TSB) (Becton-Dickinson). The microorganisms were then washed once with 10 mM Tris, pH 7.4. Subsequently, 4×10^6 cfu were added to 15 ml of the underlay agarose gel, consisting of 0.03% (w/v) TSB, 1% (w/v) low electroendosmosis type (EEO) agarose (Sigma-Aldrich) and 0.02% (v/v) Tween 20 (Sigma-Aldrich). The underlay was poured into a Ø 144 mm petri dish. After agarose solidification, 4 mm-diameter wells were punched and 6 μl peptide solution of required concentration added to each well. Plates were incubated at 37° C. for 3 h to allow peptide diffusion. The underlay gel was then covered with 15 ml of molten overlay (6% TSB and 1% Low-EEO agarose in distilled H2O). Antimicrobial activity of a peptide was visualized as a zone of clearing around each well after 18-24 h of incubation at 37° C. […]

No end group written: not given here.

In the case of KYEITTIHNLFRKLTHRLFRRNFGYTLR [KYE28], in assay [1], the Platelet counts result is on record as “increased platelet levels after 20 h”, the IFN-γ in blood entry is “significant reductions”, the IL-6 in blood result is listed as “significant reductions” and the MCP-1 in blood result was “significant reductions”. Moreover, in assay [1], the TNF-α in blood result is given as “significant reductions”, the IL-10 in blood result is reported as “an increase in IL-10 was observed after 8 h”, the Survival entry was “dramatic improvement on survival” and the Weight entry is “full recovery of weight”. Moreover, in assay [2], the “Antimicrobial activity in RDA (zones of clearance)” value (“Antimicrobial activity in RDA” for short) was “activities were similar to those observed for”.
Regarding KYEITTIHNLFRKLTHRLFRR [KYE21], in assay [1], the IFN-γ in blood entry is “significant reductions”, the IL-6 in blood result is reported as “significant reductions”, the MCP-1 in blood entry is “significant reductions” and the TNF-α in blood entry was “significant reductions”. Also, in assay [1], the IL-10 in blood result is recorded as “an increase in IL-10 was observed after 8 h”, the Survival result is “dramatic improvement on survival” and the Weight entry is listed as “full recovery of weight”. Moreover, the “Antimicrobial activity in RDA” value in assay [2] is “activities were similar to those observed for”.
As to NLFRKLTHRLFRRNFGYTLR [NLF20], in assay [1], the Platelet counts entry is on record as “significantly increased platelets”; the IFN-γ in blood entry is on record as “significant reductions”; the IL-10 in blood entry was “an increase in IL-10 was observed after 8 h and 20 h”; the Survival result is “dramatic improvement on survival”. Further, the Weight entry in assay [1] is recorded as “full recovery of weight”. For the same sequence, the “Antimicrobial activity in RDA” value in assay [2] is recorded as “well exceeded those observed for”.
